Assay results taken from US20180318300A1, “TREATMENT OF AUTOIMMUNE DISEASE” (MingSight Pharmaceuticals, Inc., priority 2015, published 2018).
Marks after values point to notes of the source that are not given here.

Assays:
[1] = system: experimental autoimmune encephalitis (EAE) model; assay: Experimental autoimmune encephalitis (EAE) model in Lewis rats; type: in vivo; settings: for EAE incidence (%): from Day 8
Description: Compound A was tested in the experimental autoimmune encephalitis (EAE) model in Lewis rats. EAE was induced by MBP69-88/CFA immunization and pertussis toxin injection in Lewis rats (Hashim, et al., 1986, J Neurosci Res.; 16(3):467-78). Compound A was prepared as an oral suspension and dosed orally, twice per day (BID) at three doses, 7.5 and 15 and 30 mg/kg for total daily doses of 15, 30 and 60 mg/kg. The efficacy was compared to animals that received the positive control FTY720 (also known as fingolimod; a compound approved for use in humans) dosed once per day at a dose of 0.5 mg/kg.

[2] = system: MRL/lpr lupus model; assay: MRL/lpr lupus model; type: in vivo
[3] = molecular target: PKCβ (Homo sapiens, UniProt P05771); assay: pSHP2 (PKCβ cell assay); type: cell-based
[4] = system: MRL/lpr mouse model of lupus; assay: MRL/lpr mouse model of lupus; type: in vivo, Female MRL/MpJ-Tnfrsf6lpr/J mice
Description: Compound A was tested for efficacy in the MRL/lpr mouse model of lupus (Shlomchik M J, et al, 1994, J Exp Med 180:1295-1306; Cohen P L and Eisenberg R. A. 1991, Annu Rev Immunol, 9:243-69; Honigberg, L. A., et al., 2010, Proc Natl Acad Sci USA. 107:13075-80). Female MRL/MpJ-Tnfrsf6lpr/J mice of 8-9 weeks of age were used in the study. When the mice reached 12 weeks of age, they were randomized by animal body weight into one of the treatment groups or an untreated control group. Treatments was initiated after randomization and continued for 12 weeks. Starting on study week 1, and then every week thereafter, urine from each animal was tested for proteinuria using the Clinitech Multistick test strip (Bayer). The animals were observed daily for significant clinical signs, moribundity and mortality. Scoring of lymphadenopathy (cervical, brachial, and inguinal) for all animals was recorded every week once lesions become apparent in 50% of the animals in vehicle-treated group.
Compound A was prepared as an oral suspension. Initial dosing was completed at two dose levels, 60 and 90 mg/kg, BID for a total dose of 120 and 180 mg/kg/day. […] Dosing for the final 8 weeks was at 180 and 240 mg/kg/day.

[5] = treatment of increased spleen weight; type: in vivo; settings: FIG. 10
[6] = Separate pharmacokinetics experiments in mice; type: in vivo; settings: 60 mg/kg dose, oral suspension
[7] = system: rat model of encephalitis; assay: rat model of encephalitis; type: in vivo; settings: FIG. 11
[8] = system: experimental autoimmune uveitis; assay: Lewis rat model of experimental autoimmune uveitis; type: in vivo; settings: oral, once per day, 10 and 20 mg/kg
Description: The efficacy was compared to animals that received the positive control cyclosporine dosed at 25 mg/kg. […] Efficacy in the model was assessed by clinical grading and by assessment of the sections of the eyes prepared for histology at the completion of the experiment.

[9] = molecular target: Human PKC delta (Homo sapiens, UniProt Q05655); assay: In vitro PKC inhibition assay, PKC delta; type: biochemical
Source text: (§1) The methods for these determinations have been described (Grant, et al. 2010, Eur J Pharmacol. 627:16-25).

[10] = system: Interleukin-8 release; assay: Interleukin-8 release; type: cell-based
Source text: as §1

[11] = 120 mg/kg p.o. BID (60 mg/kg BID for the initial 4 weeks)
[12] = both doses (180 and 240 mg/kg/day for the final 8 weeks)

Human PKC delta, sequence (Q05655 whole entry): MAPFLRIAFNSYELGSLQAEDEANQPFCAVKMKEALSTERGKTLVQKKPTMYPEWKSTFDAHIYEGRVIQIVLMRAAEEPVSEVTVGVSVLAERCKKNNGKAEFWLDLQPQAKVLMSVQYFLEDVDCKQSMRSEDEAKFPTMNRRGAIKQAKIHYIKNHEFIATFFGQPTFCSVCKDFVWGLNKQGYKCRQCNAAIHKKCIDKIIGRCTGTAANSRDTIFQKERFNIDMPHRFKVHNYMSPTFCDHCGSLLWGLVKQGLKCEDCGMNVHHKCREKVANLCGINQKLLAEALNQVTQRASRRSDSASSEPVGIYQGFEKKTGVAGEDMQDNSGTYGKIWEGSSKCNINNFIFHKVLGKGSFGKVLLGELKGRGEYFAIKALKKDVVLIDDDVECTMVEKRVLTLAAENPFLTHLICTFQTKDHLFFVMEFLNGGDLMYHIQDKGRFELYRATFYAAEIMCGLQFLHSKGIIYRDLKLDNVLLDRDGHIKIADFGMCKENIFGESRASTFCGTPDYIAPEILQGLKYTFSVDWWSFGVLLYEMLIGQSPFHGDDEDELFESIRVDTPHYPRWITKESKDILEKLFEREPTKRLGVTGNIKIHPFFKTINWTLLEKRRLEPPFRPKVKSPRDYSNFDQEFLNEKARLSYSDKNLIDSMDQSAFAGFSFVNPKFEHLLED
PKCβ, sequence (P05771 whole entry, species assumed): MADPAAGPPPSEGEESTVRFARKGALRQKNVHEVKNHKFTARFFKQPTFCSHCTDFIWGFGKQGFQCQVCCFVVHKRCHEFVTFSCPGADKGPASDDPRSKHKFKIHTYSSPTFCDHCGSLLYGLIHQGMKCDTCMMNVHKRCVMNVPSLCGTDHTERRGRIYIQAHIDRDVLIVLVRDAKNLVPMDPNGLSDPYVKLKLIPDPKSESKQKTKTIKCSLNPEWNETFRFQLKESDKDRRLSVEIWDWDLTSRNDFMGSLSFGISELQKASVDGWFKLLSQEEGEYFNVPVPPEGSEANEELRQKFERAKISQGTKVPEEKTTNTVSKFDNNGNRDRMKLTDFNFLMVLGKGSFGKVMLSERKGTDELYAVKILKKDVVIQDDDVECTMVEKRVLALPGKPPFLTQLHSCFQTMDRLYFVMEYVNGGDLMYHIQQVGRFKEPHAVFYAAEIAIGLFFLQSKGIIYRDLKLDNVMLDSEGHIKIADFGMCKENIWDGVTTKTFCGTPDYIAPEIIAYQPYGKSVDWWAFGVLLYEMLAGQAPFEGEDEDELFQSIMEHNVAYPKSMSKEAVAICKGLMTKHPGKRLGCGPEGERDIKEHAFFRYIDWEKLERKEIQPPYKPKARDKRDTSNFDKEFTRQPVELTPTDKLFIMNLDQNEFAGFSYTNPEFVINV

With `CCCCCCCCc1ccc(CCC(N)(CO)CO)cc1` [FTY720, fingolimod, reference compound] the “Mean day of onset +/− SEM (sick rats)” value ([1]; 0.5 mg/kg p.o. QD) was 8.0 +/− 0.3, the “Median day of onset (all rats)” value ([1]; 0.5 mg/kg p.o. QD) was 8.0 and the “EAE incidence (%)” value ([1]; 0.5 mg/kg p.o. QD) was 87.5%.

In the case of `Cc1ncc(F)c(Nc2n[nH]c3c2CN(C(=O)N2C[C@@H](C)N(CC4CCOCC4)C[C@@H]2C)C3(C)C)n1` [compound A, 5-{[(2S,5R)-2,5-dimethyl-4-(tetrahydro-2H-pyran-4-ylmethyl)piperazin-1-yl]carbonyl}-N-(5-fluoro-2-methylpyrimidin-4-yl)-6,6-dimethyl-1,4,5,6-tetrahydropyrrolo[3,4-c]pyrazol-3-amine], the urine score ([2]; FIG. 7) is reported as “reducing urine score”, the lymphadenopathy ([2]; FIG. 8) is reported as “reducing lymphadenopathy” and the splenomegaly ([2]; FIG. 9) is reported as “reducing splenomegaly”. For the same compound, the IC50 [3] was 9.8 nM, the BUN/Creatinine ([4]; 90 mg/kg p.o. BID) was 163.9 and the Creatinine ([4]; 90 mg/kg p.o. BID) was 0.26. For the same compound, the “BUN” value ([4]; 90 mg/kg p.o. BID, 12 weeks of treatment) was 52.4 mg/dL, the “BUN” value [4, 11] was 29.5 mg/dL and the BUN/Creatinine [4, 11] was 147.7. For the same compound, the Creatinine [4, 11] was 0.20, the “Lymphadenopathy score (FIG. 8)” value [4, 12] was “reduction” and the “Mean absolute spleen weight (FIG. 9)” value [4, 12] was “reduction”. For the same compound, the “Mean lymph node weight (FIG. 10)” value [4, 12] was “reduction”, the “Protein in the urine (FIG. 7)” value [4, 12] was “significant reduction” and the increased spleen weight [5] was “efficacy”. For the same compound, the “Exposure of compound A in mice” value [6] was “unexpectedly low and insufficient exposure”, the “efficacy in a rat model of encephalitis” value [7] was “efficacy” and the “Reduction in clinical scores (FIG. 12)” value [8] was “greater than 50%”. For the same compound, the “Reduction in histopathological scores (FIG. 13)” value [8] was “greater than 75%”, the “Inhibition of PKC delta (in words)” value [9] was “does not significantly inhibit” and the “Mean day of onset +/− SEM (sick rats)” value ([1]; 7.5 mg/kg p.o. BID) was 9.0 +/− 0.5. For the same compound, the “Median day of onset (all rats)” value ([1]; 7.5 mg/kg p.o. BID) was 9.0, the “EAE incidence (%)” value ([1]; 7.5 mg/kg p.o. BID) was 100.0% and the “Mean day of onset +/− SEM (sick rats)” value ([1]; 15 mg/kg p.o. BID) was 8.5 +/− 0.4. The “Median day of onset (all rats)” value ([1]; 15 mg/kg p.o. BID) was 8.0, the “EAE incidence (%)” value ([1]; 15 mg/kg p.o. BID) was 100.0% and the “Mean day of onset +/− SEM (sick rats)” value ([1]; 30 mg/kg p.o. BID) was 9.0 +/− 0.9. The “Median day of onset (all rats)” value ([1]; 30 mg/kg p.o. BID) was 13.5, the “EAE incidence (%)” value ([1]; 30 mg/kg p.o. BID, p<0.05 vs. vehicle) was 50.0%* and the “Clinical score in the EAE model” value ([1]; 7.5, 15 and 30 mg/kg BID) was “dose-dependent decrease”. For the same compound, the “End EAE severity compared to the vehicle control group (FIG. 11)” value ([1]; 15 and 30 mg/kg BID) was “significantly reduced”, the “Maximum EAE severity compared to the vehicle control group (FIG. 11)” value ([1]; 15 and 30 mg/kg BID) was “significantly reduced” and the “Clinical score compared with fingolimod” value ([1]; highest dose employed (30 mg/kg BID) vs fingolimod 0.5 mg/kg QD) was “appeared superior to fingolimod”. The IC50 [10] was 39 nM.
